What all share (experiment): relative viability (nuclei count vs DMSO), 5 days (fraction); higher = more cells survive
Compound in the experiment “Decitabine + Navitoclax”: Nc1ncn([C@H]2C[C@H](O)[C@@H](CO)O2)c(=O)n1 [Decitabine] + CC1(C)CCC(c2ccc(Cl)cc2)=C(CN2CCN(c3ccc(C(=O)NS(=O)(=O)c4ccc(N[C@H](CCN5CCOCC5)CSc5ccccc5)c(S(=O)(=O)C(F)(F)F)c4)cc3)CC2)C1 [Navitoclax] (partner 0.5 µM)
Put shortly:
(§1)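 Dosing by pin tool came one day after lung cancer cell lines were seeded in 1536-well plates, using either one drug or a fixed anchor-drug dose plus five library-drug doses (not always all listed) in √10 steps. After 5 days, nuclei were counted on 4× images. Relative viability is treated-well nuclei count divided by vehicle-well nuclei count, and values are medians of duplicate plates.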

Compound in the experiment “Decitabine + OSI-027”: Nc1ncn([C@H]2C[C@H](O)[C@@H](CO)O2)c(=O)n1 [Decitabine] + COc1cccc2cc(-c3nc([C@H]4CC[C@H](C(=O)O)CC4)n4ncnc(N)c34)[nH]c12 [OSI-027] (partner 0.5 µM)
Put shortly:
as §1

Compound in the experiment “Decitabine + Pictilisib”: Nc1ncn([C@H]2C[C@H](O)[C@@H](CO)O2)c(=O)n1 [Decitabine] + CS(=O)(=O)N1CCN(Cc2cc3nc(-c4cccc5[nH]ncc45)nc(N4CCOCC4)c3s2)CC1 [Pictilisib] (partner 1 µM)
Put shortly:
as §1

For 201T, the relative viability in the experiment with Decitabine + Navitoclax (first compound 0.04 µM) is 1.16; with Decitabine + Navitoclax (first compound 0.1265 µM) it was 1.14; with Decitabine + Navitoclax (first compound 0.4 µM), 1.27; with Decitabine + Navitoclax (first compound 1.265 µM), 1.13; with Decitabine + Navitoclax (first compound 4 µM), 1.1; with Decitabine + OSI-027 (first compound 0.04 µM), 0.72. The relative viability is 0.681 with Decitabine + OSI-027 (first compound 0.1265 µM); 0.62 with Decitabine + OSI-027 (first compound 0.4 µM); 0.464 with Decitabine + OSI-027 (first compound 1.265 µM); 0.403 with Decitabine + OSI-027 (first compound 4 µM); 0.655 with Decitabine + Pictilisib (first compound 0.04 µM); 0.817 with Decitabine + Pictilisib (first compound 0.1265 µM). The relative viability in the experiment with Decitabine + Pictilisib (first compound 0.4 µM) came out at 0.93; in the experiment with Decitabine + Pictilisib (first compound 1.265 µM) it was 0.695; with Decitabine + Pictilisib (first compound 4 µM), 0.531.
A549: the relative viability is 0.929 in the experiment with Decitabine + Navitoclax (first compound 0.04 µM); 0.875 in the experiment with Decitabine + Navitoclax (first compound 0.1265 µM); 0.331 with Decitabine + Navitoclax (first compound 0.4 µM); 0.117 with Decitabine + Navitoclax (first compound 1.265 µM); 0.077 with Decitabine + Navitoclax (first compound 4 µM); 0.444 with Decitabine + Pictilisib (first compound 0.04 µM). In addition, the relative viability with Decitabine + Pictilisib (first compound 0.1265 µM) was found to be 0.49; with Decitabine + Pictilisib (first compound 0.4 µM) it was 0.37; with Decitabine + Pictilisib (first compound 1.265 µM) it was 0.256; with Decitabine + Pictilisib (first compound 4 µM), 0.166.
With A-427, the relative viability worked out at 0.674 in the experiment with Decitabine + Navitoclax (first compound 0.04 µM); 0.578 in the experiment with Decitabine + Navitoclax (first compound 0.1265 µM); 0.365 with Decitabine + Navitoclax (first compound 0.4 µM); 0.255 with Decitabine + Navitoclax (first compound 1.265 µM); 0.191 with Decitabine + Navitoclax (first compound 4 µM); 0.266 in the experiment with Decitabine + OSI-027 (first compound 0.04 µM). The relative viability was found to be 0.324 with Decitabine + OSI-027 (first compound 0.1265 µM); 0.26 in the experiment with Decitabine + OSI-027 (first compound 0.4 µM); 0.213 with Decitabine + OSI-027 (first compound 1.265 µM); 0.246 with Decitabine + OSI-027 (first compound 4 µM); 0.42 with Decitabine + Pictilisib (first compound 0.04 µM); 0.663 with Decitabine + Pictilisib (first compound 0.1265 µM). Also, the relative viability in the experiment with Decitabine + Pictilisib (first compound 0.4 µM) stood at 0.244; with Decitabine + Pictilisib (first compound 1.265 µM) it was 0.359; in the experiment with Decitabine + Pictilisib (first compound 4 µM), 0.219.
ABC-1: the relative viability was determined as 0.554 with Decitabine + OSI-027 (first compound 0.04 µM); 0.387 in the experiment with Decitabine + OSI-027 (first compound 0.1265 µM); 0.492 with Decitabine + OSI-027 (first compound 0.4 µM); 0.424 with Decitabine + OSI-027 (first compound 1.265 µM); 0.37 in the experiment with Decitabine + OSI-027 (first compound 4 µM); 0.812 with Decitabine + Pictilisib (first compound 0.04 µM). In addition, the relative viability with Decitabine + Pictilisib (first compound 0.1265 µM) came out at 0.728; with Decitabine + Pictilisib (first compound 0.4 µM), 0.812; in the experiment with Decitabine + Pictilisib (first compound 1.265 µM) it was 0.443; in the experiment with Decitabine + Pictilisib (first compound 4 µM) it was 0.505.
In the case of BEN, the relative viability in the experiment with Decitabine + Navitoclax (first compound 0.04 µM) is 0.0613; in the experiment with Decitabine + Navitoclax (first compound 0.1265 µM), 0.0587; in the experiment with Decitabine + Navitoclax (first compound 0.4 µM), 0.0516; with Decitabine + Navitoclax (first compound 1.265 µM), 0.0522; with Decitabine + Navitoclax (first compound 4 µM), 0.0591; in the experiment with Decitabine + OSI-027 (first compound 0.04 µM) it was 0.297. In addition, the relative viability in the experiment with Decitabine + OSI-027 (first compound 0.1265 µM) is 0.315; with Decitabine + OSI-027 (first compound 0.4 µM) it was 0.273; with Decitabine + OSI-027 (first compound 1.265 µM), 0.295; with Decitabine + OSI-027 (first compound 4 µM) it was 0.289; with Decitabine + Pictilisib (first compound 0.04 µM) it was 0.545; with Decitabine + Pictilisib (first compound 0.1265 µM), 0.543. In addition, the relative viability with Decitabine + Pictilisib (first compound 0.4 µM) came out at 0.396; in the experiment with Decitabine + Pictilisib (first compound 1.265 µM), 0.349; with Decitabine + Pictilisib (first compound 4 µM), 0.324.
As to CAL-12T, the relative viability with Decitabine + Navitoclax (first compound 0.04 µM) was 1.02; with Decitabine + Navitoclax (first compound 0.1265 µM), 0.867; with Decitabine + Navitoclax (first compound 0.4 µM) it was 0.752; with Decitabine + Navitoclax (first compound 1.265 µM), 0.627; with Decitabine + Navitoclax (first compound 4 µM), 0.497; in the experiment with Decitabine + OSI-027 (first compound 0.04 µM), 0.558. The relative viability with Decitabine + OSI-027 (first compound 0.1265 µM) worked out at 0.612; with Decitabine + OSI-027 (first compound 1.265 µM) it was 0.305; with Decitabine + OSI-027 (first compound 4 µM), 0.268; with Decitabine + Pictilisib (first compound 0.04 µM), 0.299; in the experiment with Decitabine + Pictilisib (first compound 0.1265 µM), 0.499; in the experiment with Decitabine + Pictilisib (first compound 0.4 µM), 0.332. In addition, the values for the relative viability with Decitabine + Pictilisib (first compound 1.265 µM) and with Decitabine + Pictilisib (first compound 4 µM) were 0.339 and 0.301, respectively.

These data come from the supplement of paper PMC10307832.
